From US10377755B2, “BCL-2 inhibitors” (Newave Pharmaceutical Inc., priority 2016, dated 2019)

Tests used:
H146 = assay: In vitro anti-proliferation assay (ATPlite) in BCL-XL-dependent small cell lung cancer cell line H146; format: cell-based; conditions: Homo sapiens, NCI-H146; about 72 hours, 5% FBS
Description: Cell antiproliferation is assayed by PerkinElmer ATPlite™ Luminescence Assay System. Briefly, the various test cancer cell lines are plated at a density of about 1×10^4 cells per well in Costar 96-well plates, and are incubated with different concentrations of compounds for about 72 hours in medium supplemented with 5% FBS. One lyophilized substrate solution vial is then reconstituted by adding 5 mL of substrate buffer solution, and is agitated gently until the solution is homogeneous. About 50 μL of mammalian cell lysis solution is added to 100 μL of cell suspension per well of a microplate, and the plate is shaken for about five minutes in an orbital shaker at ˜700 rpm. This procedure is used to lyse the cells and to stabilize the ATP. Next, 50 μL substrate solution is added to the wells and microplate is shaken for five minutes in an orbital shaker at ˜700 rpm. Finally, the luminescence is measured by a PerkinElmer TopCount® Microplate Scintillation Counter. Such assays, carried out with a range of doses of test compounds, allow the determination of the cellular anti-antiproliferative IC50 of the compounds of the present invention.

Mcl-1 = Mcl-1 (Homo sapiens (Human), UniProt Q07820); conditions: cited from earlier work
RS4;11 cells = conditions: cited from earlier work
CLL [1] = conditions: average; read-out: average EC50, apoptosis in CLL; cited from earlier work
RS4;11 xenografts = conditions: single dose of 100 mg/kg; cited from earlier work
CLL [2] = conditions: Human Phase I and II; cited from earlier work

Chain of Mcl-1 (Q07820 whole entry): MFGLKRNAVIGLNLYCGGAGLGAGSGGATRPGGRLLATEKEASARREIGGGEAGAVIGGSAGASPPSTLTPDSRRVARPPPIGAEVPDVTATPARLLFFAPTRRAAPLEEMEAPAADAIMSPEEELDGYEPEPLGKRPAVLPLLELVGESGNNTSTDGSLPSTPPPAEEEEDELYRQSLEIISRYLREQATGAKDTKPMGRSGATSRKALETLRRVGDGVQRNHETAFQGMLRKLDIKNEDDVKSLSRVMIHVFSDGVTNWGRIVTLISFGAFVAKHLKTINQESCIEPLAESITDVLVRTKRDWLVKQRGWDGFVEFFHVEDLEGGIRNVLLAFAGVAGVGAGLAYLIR

IC50 (H146): > 2000 nM
SMILES: CC1(C)CCC(CN2CCN(c3ccc(C(=O)NS(=O)(=O)c4ccc(NCC5CCOCC5)c([N+](=O)[O-])c4)c(Oc4cnc5[nH]ccc5c4)c3)CC2)=C(c2ccc(Cl)cc2)C1 [ABT-199]
activity to Mcl-1 (Mcl-1): no activity
EC50 (RS4;11 cells): 8 nM
EC50 (CLL [1]): 3 nM
maximal tumor growth inhibition (RS4;11 xenografts): 95%
tumor growth delay (RS4;11 xenografts): 152%
clinical efficacy for CLL (CLL [2]): highly efficacious
clinical toxicity (CLL [2]): lethal tumour lysis syndrome
